According to US5397794A, “Use of thiazoloisoindolinone derivatives as antiviral medicaments” (Boehringer Mannheim GmbH, priority 1990, dated 1995):

system: not given; experiment: not given; conditions: Hirsch, J. Infec. Dis. 157, 427-431 (1988); cited from earlier work

| Compound | therapeutic range |
| --- | --- |
| Cc1cn([C@H]2C[C@H](N=[N+]=[N-])[C@@H](CO)O2)c(=O)[nH]c1=O [AZT, 3'-azido-3'-desoxythymidine] | very narrow therapeutic range |

molecular target: T1, HIV-RT (purified RT from HIV-1, expressed in E. coli) (Human immunodeficiency virus type 1 group M subtype B, UniProt P04585); experiment: Inhibition of HIV-1 reverse transcriptase (RT), [3H]-thymidine-5'-triphosphate incorporation; type: biochemical; conditions: purified recombinant HIV-1 RT; HIV-LTR in vitro transcript template, 18 mer primer
T1 construct: purified RT from HIV-1; made in house; host or cells: E. coli
Text: Inhibition of reverse transcriptase (RT) by 9b-phenyl-2,3-dihydrothiazolo[2,3-a]isoindol-5(9bH)-one.
The screening test system contains the purified RT from HIV-1, which was expressed by gene-technological methods in E. coli, as well as the components of the initiation complex, such as the in vitro transcripts of the HIV-LTR's with the neighbouring primer binding site as template and an 18 mer oligo-nucleotide as primer complementary to the primer binding site. The [^-3 H]-thymidine-5'-triphosphate incorporation was measured by counting in a β-counter.

| Compound | IC50 |
| --- | --- |
| Cc1cccc(C23SCCN2C(=O)c2ccccc23)c1C (stereo not shown) [Example 3.8] | 0.8 µM |
| Cc1cn([C@H]2C[C@H](N=[N+]=[N-])[C@@H](CO[P@](=O)(O)O[P@](=O)(O)OP(=O)(O)O)O2)c(=O)[nH]c1=O [AZT-TP, 3'-azido-3'-desoxythymidine-5'-triphosphate, reference compound] | 6 µM |
| O=C1c2ccccc2C2(c3ccccc3)SCCN12 (stereo not shown) [Example 3.30, 9b-phenyl-2,3-dihydrothiazolo[2,3-a]isoindol-5(9bH)-one] | 0.7 µM |
| Cc1ccc(C)c(C23SCCN2C(=O)c2ccccc23)c1 (stereo not shown) [Example 3.18] | 0.95 µM |
| COc1cccc(C23SCCN2C(=O)c2ccccc23)c1 (stereo not shown) [Example 3.12] | 1.1 µM |
| O=C1c2ccccc2C2(c3ccccc3)N1CCS2(=O)=O (stereo not shown) [Example 4, 9b-Phenyl-2,3-dihydrothiazolo[2,3-a]isoindol-5(9bH)-one 1,1-dioxide] | 1.4 µM |
| O=C1c2ccccc2C2(c3cccc(C(F)(F)F)c3)SCCN12 (stereo not shown) [Example 3.15] | 1 µM |
| O=C1c2ccccc2C2(c3ccc(Cl)cc3)SCCN12 (stereo not shown) [Example 3.2] | 4 µM |
| O=C1c2ccccc2C2(c3ccc(Cl)c(Cl)c3)SCCN12 (stereo not shown) [Example 3.4] | 4 µM |
